These results are taken from patent US20220298163A1, “BTK INHIBITORS WITH IMPROVED DUAL SELECTIVITY” (BEIGENE, LTD., priority 2017, published 2022).

The structures appear in SMILES notation.

Data set [1] in a line: Rat pharmacokinetic study. Format: in vivo, Male Sprague Dawley rats. The settings on record: for AUC(0-inf) / bioavailability / clearance / Cmax: male, Sprague Dawley, plasma, rat; for AUC(0-inf): IV 1 mg·kg^−1 / PO 5 mg·kg^−1 study, route not given; for bioavailability: oral bioavailability, PO 5 mg·kg^−1 vs IV 1 mg·kg^−1; for clearance: single IV 1 mg·kg^−1; for Cmax: single PO 5 mg·kg^−1.

The next data set has as its target EGFR (Homo sapiens, UniProt P00533). The data set is described as follows: Biochemical kinase selectivity: IC50 determination of EGFR. The settings on record: TR-FRET, 20 μM ATP.
Data set [2] addresses T1, phosphorylated Btk at Tyr223 (Homo sapiens, UniProt Q06187).
T1 construct: determine the endogenous levels of phosphorylated Btk at Tyr223; endogenous in cells; host or cells: Ramos cells (CRL-1596, ATCC)
Nature of the data set: Btk pY223 cellular assay (HTRF, Ramos cells). The format is cell-based. The settings on record: compound 3 hours, pervanadate or Na3VO4 stimulation, read-out: IC50 (nM) in cell Btk pY223.
Description: Btk pY223 cellular assay is an HTRF based assay intended to determine the endogenous levels of phosphorylated Btk at Tyr223.
Briefly, Ramos cells were serum starved in 0.5% FBS-containing RPMI1640 overnight. The cells were then incubated with interested compounds at various concentrations in a CO2 incubator for 3 hours. After the incubation, cells were stimulated with 1 mM pervanadate (PV) or Na3VO4 (OV) for 20 min. Then, the cells were collected and lysed with 1× lysis buffer at RT for 10 min (4× lysis buffer supplied in the kit). 1× antibody mix was prepared by diluting anti-Btk-d2 and anti-pBtk-K in detection buffer (supplied in the kit). […] After mixing gently and spinning briefly, the plate was sealed up and kept in dark at RT for 18 hours. […] IC50 values were calculated with GraphPad Prism software using the sigmoidal dose-response function.

For a further data set, the target named is T2, Tec (Homo sapiens, UniProt P42680).
T2 sequence (P42680 1-631): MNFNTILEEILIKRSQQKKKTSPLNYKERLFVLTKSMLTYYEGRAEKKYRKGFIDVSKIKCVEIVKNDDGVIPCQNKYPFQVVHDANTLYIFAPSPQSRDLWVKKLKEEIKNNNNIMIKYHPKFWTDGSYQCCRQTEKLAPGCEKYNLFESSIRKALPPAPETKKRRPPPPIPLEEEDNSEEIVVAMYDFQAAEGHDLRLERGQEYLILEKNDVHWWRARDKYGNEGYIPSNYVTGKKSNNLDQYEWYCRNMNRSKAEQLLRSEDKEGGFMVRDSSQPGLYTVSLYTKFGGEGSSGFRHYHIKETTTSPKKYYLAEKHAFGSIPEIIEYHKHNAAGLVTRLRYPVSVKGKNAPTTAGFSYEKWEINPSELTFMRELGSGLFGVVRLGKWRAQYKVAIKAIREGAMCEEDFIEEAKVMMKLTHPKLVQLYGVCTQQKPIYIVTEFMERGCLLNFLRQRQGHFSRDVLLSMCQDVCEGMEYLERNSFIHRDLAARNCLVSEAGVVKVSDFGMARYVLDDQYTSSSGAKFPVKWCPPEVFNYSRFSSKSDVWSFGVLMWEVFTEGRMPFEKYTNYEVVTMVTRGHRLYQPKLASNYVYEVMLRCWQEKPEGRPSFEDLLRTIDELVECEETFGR
Nature of the data set: Biochemical kinase selectivity: IC50 determination of Tec. The settings on record: TR-FRET, 280 μM ATP.

For data set [3] the following is noted: other Btk inhibitors, meeting abstract 2016; cited from earlier work.

T1 sequence (Q06187 whole entry): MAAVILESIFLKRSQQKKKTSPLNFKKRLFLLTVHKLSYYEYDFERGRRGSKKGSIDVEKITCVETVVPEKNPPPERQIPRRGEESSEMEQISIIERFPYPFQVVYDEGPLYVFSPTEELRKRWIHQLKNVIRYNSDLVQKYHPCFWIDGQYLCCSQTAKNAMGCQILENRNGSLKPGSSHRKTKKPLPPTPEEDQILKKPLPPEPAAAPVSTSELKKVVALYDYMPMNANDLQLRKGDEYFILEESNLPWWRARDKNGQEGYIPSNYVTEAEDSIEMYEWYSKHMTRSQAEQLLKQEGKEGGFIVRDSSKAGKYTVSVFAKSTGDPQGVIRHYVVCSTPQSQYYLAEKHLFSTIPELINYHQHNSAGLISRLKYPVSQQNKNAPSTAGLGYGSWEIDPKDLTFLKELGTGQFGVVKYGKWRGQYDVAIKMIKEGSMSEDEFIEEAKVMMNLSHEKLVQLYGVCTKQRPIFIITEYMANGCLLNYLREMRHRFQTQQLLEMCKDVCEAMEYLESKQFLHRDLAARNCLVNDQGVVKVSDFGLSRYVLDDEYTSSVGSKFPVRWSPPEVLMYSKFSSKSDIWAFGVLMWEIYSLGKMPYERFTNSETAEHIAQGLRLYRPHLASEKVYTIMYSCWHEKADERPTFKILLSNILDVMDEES
Sequence of EGFR (P00533 25-1210): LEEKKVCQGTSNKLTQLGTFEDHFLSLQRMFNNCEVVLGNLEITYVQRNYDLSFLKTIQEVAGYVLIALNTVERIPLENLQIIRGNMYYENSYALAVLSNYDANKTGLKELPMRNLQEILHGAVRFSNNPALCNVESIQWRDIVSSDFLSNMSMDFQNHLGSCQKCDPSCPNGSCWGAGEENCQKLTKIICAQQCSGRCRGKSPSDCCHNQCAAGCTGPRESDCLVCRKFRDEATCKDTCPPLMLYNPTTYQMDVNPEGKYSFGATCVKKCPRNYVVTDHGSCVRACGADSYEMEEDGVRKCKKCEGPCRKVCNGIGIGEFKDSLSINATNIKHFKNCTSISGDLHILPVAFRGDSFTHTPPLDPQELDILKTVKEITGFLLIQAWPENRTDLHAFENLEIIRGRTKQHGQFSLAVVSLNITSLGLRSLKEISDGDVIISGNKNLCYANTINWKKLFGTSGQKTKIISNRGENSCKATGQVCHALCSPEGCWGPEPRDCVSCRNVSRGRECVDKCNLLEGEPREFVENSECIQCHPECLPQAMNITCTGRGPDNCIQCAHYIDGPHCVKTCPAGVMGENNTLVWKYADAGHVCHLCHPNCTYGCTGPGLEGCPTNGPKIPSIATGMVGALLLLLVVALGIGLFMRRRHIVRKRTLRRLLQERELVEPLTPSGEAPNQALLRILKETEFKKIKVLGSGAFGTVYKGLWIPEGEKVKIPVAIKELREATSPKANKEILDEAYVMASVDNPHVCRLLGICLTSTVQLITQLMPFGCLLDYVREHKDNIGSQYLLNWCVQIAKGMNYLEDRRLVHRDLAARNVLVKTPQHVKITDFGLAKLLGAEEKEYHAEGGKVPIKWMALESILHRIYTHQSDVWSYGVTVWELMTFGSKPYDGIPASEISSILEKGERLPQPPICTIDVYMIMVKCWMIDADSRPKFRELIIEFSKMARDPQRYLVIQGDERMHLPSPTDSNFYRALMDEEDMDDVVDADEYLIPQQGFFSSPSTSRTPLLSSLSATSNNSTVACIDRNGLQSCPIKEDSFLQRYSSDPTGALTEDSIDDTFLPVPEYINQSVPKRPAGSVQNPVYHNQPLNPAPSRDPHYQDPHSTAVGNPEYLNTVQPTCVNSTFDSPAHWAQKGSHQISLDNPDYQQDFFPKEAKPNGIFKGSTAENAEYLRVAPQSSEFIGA

On to `C=CC(=O)N1CCC(C2CCNc3c(C(N)=O)c(-c4cc(OC)c(C5CC5)c(OC)c4)nn32)CC1` (single isomer, unassigned) [Example A2a, (S or R)-7-(1-acryloylpiperidin-4-yl)-2-(4-cyclopropyl-3,5-dimethoxyphenyl)-4,5,6,7-tetrahydropyrazolo[1,5-a]pyrimidine-3-carboxamide], for which, in data set [1], the AUC(0-inf) was found to be 1710 ng·h/mL, the bioavailability was found to be 73.7%, the clearance is 42.8 mL/min/kg and the Cmax was 859 ng/mL. Further, the “plasma clearance, Cmax, AUC and oral bioavailability compared to compound 167*” value in data set [1] (rat PK study, Table IV) was “lower plasma clearance values, higher Cmax, AUC and oral bioavailability”.
As to `C=CC(=O)Nc1ccccc1C1CCNc2c(C(N)=O)c(-c3cc(OC)c(OC)c(OC)c3)nn21` (stereo not drawn) [167^#], the IC50 against EGFR is 9.5 nM. Also, in data set [1], the AUC(0-inf) turned out to be 65.1 ng·h/mL, the bioavailability worked out at 11.8%, the clearance was 152 mL/min/kg and the Cmax was found to be 60.4 ng/mL. In addition, the IC50 in data set [2] was determined as 83.5 nM. On Tec, this compound returned an IC50 of 157 nM.
Consider `CC#CC(=O)N1CCC[C@H]1c1nc(-c2ccc(C(=O)Nc3ccccn3)cc2)c2c(N)nccn12` [ACP-196], for which the “bleeding adverse event (in words)” value in data set [3] is reported as “Bleeding as a common adverse event (AE)”.
With `C=CC(=O)N1CCC([C@@H]2CCNc3c(C(N)=O)c(-c4ccc(Oc5ccccc5)cc4)nn32)CC1` [BGB-3111], the “bleeding adverse event (in words)” value in data set [3] is “Bleeding as a common adverse event (AE)”.
For `CC#CC(=O)N1CC[C@@H](n2c(=O)n(-c3ccc(Oc4ccccc4)cc3)c3c(N)ncnc32)C1` [ONO-4059], the “bleeding adverse event (in words)” value in data set [3] is listed as “Bleeding as a common adverse event (AE)”.
